Experimental findings from patent US20110059850A1, “PHYTOTOXIC HALOGENATED DERIVATIVES OF BENZOXAZINONES” (UNIVERSIDAD DE CÁDIZ, priority 2006, published 2011) are described below.

Molecules are shown by their SMILES.

What is called IC50 is the concentration that inhibits the measured activity by half. Higher therefore signals weaker potency.

Experiment [1] has as its system Lolium rigidum L. (ryegrass), common biotype and biotype multiresistant to herbicides SLR31. In words: phytotoxicity bioassay in Petri dishes, L. rigidum biotypes. Particulars: common biotype versus multiresistant biotype SLR31. The format is in vivo. As to the method:
(§1) The phytotoxicity bioassays for the compounds object of the invention are performed by means of the protocol of phytotoxicity bioassays in Petri dishes developed by the Grupo de Alelopatía de Cádiz (Cádiz Allelopathy Group) (see, for example: Macías, F. A.; Castellano, D.; Molinillo, J. M. G.; J. Agric. Food Chem. 2000, 48, 6, 2512-2521).
(§2) This assay attempts to imitate the natural conditions of the action of the products to be assayed on seeds of selected plant species, therefore the products are supplied in the form of aqueous solution in a Petri dish in which a certain number of seeds of each receiving species is introduced. The concentration range used allows observing the relationship between the phytotoxic activity of the product and its concentration. The dilutions assayed were 10^−3 M, 5·10^−4 M, 10^−4 M, 5·10^−5 M, 10^−5 M, 5·10^−6 M, 10^−6 M, 5·10^−7, 10^−7 and 5·10^−8. These solutions are buffered at pH=6 using to that end a 10 mM solution of 2-[N-morpholino]-ethanesulfonic acid (MES) the pH of which is adjusted to the desired value by means of adding a 1M solution of NaOH. The blank of this experiment is distilled and deionized water also buffered with MES but in which there is no product dissolved. […]

Experiment [2] relates to Lepidium sativum L. (watercress). The experiment in a line: phytotoxicity bioassay in Petri dishes, radicle length. The format is in vivo. Particulars: sigmoid type dose-response model, pH 6, 25° C., dark. As to the method:
as §1, §2

On to `O=C1COc2ccc(F)cc2N1O` [Compound II, 6-fluoro-4-hydroxy-(2H)-1,4-benzoxazin-3(4H)-one], for which the “most affected L. rigidum biotype” value in experiment [1] is listed as “the multiresistant biotype was the most affected”.

For `O=C1COc2ccc(Cl)cc2N1O` [VII, 6-chloro-4-hydroxy-(2H)-1,4-benzoxazin-3(4H)-one], the “most affected L. rigidum biotype” value in experiment [1] is given as “the opposite trend”. In addition, in experiment [2], the IC50 was about 58 nM.
